In this assay the target is myeloperoxidase (MPO) (Homo sapiens (Human), UniProt P05164). The experiment in a line: MPO peroxidation assay (Amplex Red assay). Type of assay: biochemical. To be noted: potency range class. As for the experimental part:
MPO Peroxidation Assay (Amplex Red Assay) MPO peroxidation activity was measured in 100 mM KPi (pH 7.4) by utilizing the non-fluorescent reagent Amplex Red (Invitrogen Cat. #A12222) which can be oxidized to the highly fluorescent resorufin. Amplex Red is oxidized by the peroxidase action of MPO to resorufin. Reactions were carried out in 50 μL total volume by adding a 25 μL mixture of 200 pM myeloperoxidase and 40 nM H2O2(Sigma #349887) to 100 nL inhibitor in 100% DMSO in a 384 well Perkin Elmer Optiplate. Enzyme and compound were preincubated for ten minutes at room temperature. After the ten minute preincubation, 25 μL of an Amplex Red mixture containing 200 μM Amplex Red and 10 mM H2O2 was added to the plate. Kinetic determinations were carried out immediately on a Perkin Elmer Envision (15 minute kinetic read, Ex: 535 nm, Em: 590 nm). IC50 values were calculated by determining the slope of the linear portion of the kinetic trace (180-540 secs), and using that calculated slope to determine % inhibition occurring at each concentration of inhibitor using the following equation: [formula] where A=minimal Y value (activity level of inhibited sample), B=maximal Y value (activity level of uninhibited sample), C=Log IC50, D=Hill Slope, x=concentration of inhibitor. MPO Chlorination Assay (APF Assay)
myeloperoxidase (MPO), sequence (P05164 49-745): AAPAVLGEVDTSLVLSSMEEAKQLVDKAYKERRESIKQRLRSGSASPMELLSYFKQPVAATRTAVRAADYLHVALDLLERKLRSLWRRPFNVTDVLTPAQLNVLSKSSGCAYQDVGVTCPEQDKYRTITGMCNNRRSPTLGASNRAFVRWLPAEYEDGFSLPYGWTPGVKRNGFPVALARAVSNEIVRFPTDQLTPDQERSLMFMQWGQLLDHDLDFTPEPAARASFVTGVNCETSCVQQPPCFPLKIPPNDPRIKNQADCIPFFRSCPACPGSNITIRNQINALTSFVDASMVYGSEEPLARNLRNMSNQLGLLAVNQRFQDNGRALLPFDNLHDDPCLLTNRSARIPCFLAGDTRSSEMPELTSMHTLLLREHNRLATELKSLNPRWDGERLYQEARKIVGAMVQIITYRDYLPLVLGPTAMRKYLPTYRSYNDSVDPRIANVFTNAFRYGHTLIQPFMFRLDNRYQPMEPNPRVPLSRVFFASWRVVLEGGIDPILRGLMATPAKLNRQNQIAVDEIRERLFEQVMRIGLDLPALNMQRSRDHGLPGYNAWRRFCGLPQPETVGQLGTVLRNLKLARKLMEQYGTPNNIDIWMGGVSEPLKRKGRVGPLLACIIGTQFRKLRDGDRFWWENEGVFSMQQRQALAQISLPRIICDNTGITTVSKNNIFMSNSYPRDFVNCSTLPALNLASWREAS
For orientation: IC50 means the point on the concentration scale where inhibition reaches its midpoint. A lower IC50 goes with greater potency. As for `Nc1cc(Cc2cnn(-c3ccc4ccccc4c3)c2)c2nn[nH]c2n1` [Example 12, 7-((1-(Naphthalen-2-yl)-1H-pyrazol-4-yl)methyl)-3H-[1,2,3]triazolo[4,5-b]pyridin-5-amine], the half-inhibitory concentration (IC50) fell in the range of 101 to 999 nM.
The value for `COc1ccccc1-n1cc(Cc2cc(N)nc3[nH]nnc23)cn1` [Example 28, 7-((1-(2-Methoxyphenyl)-1H-pyrazol-4-yl)methyl)-3H-[1,2,3]triazolo[4,5-b]pyridin-5-amine] was 101 to 999 nM; that for `Nc1cc(Cc2cnn(-c3cccc(C4CC4)c3)c2)c2nn[nH]c2n1` [Example 15, 7-((1-(3-Cyclopropylphenyl)-1H-pyrazol-4-yl)methyl)-3H-[1,2,3]triazolo[4,5-b]pyridin-5-amine] was 1 to 100 nM; that for `COc1ccc2cccc(-n3cc(Cc4cc(N)nc5[nH]nnc45)cn3)c2c1` [Example 35, 7-((1-(7-Methoxynaphthalen-1-yl)-1H-pyrazol-4-yl)methyl)-3H-[1,2,3]triazolo[4,5-b]pyridin-5-amine] was 1 to 100 nM.
The value for `COc1cccc(-n2cc(Cc3cc(N)nc4[nH]nnc34)cn2)c1` [Example 23, 7-((1-(3-Methoxyphenyl)-1H-pyrazol-4-yl)methyl)-3H-[1,2,3]triazolo[4,5-b]pyridin-5-amine] was 1 to 100 nM.
The value for `Nc1cc(Cc2cnn(-c3ccc(F)cn3)c2)c2nn[nH]c2n1` [Example 17, 7-((1-(5-Fluoropyridin-2-yl)-1H-pyrazol-4-yl)methyl)-3H-[1,2,3]triazolo[4,5-b]pyridin-5-amine] was 1 to 100 nM.
Compound `Nc1cc(Cc2ccc(-c3ccccn3)s2)c2nn[nH]c2n1` [Example 51, 7-((5-(Pyridin-2-yl)thiophen-2-yl)methyl)-3H-[1,2,3]triazolo[4,5-b]pyridin-5-amine] returned an IC50 of 1 to 100 nM.
`CS(=O)(=O)c1ccc(Cn2cc(Cc3cc(N)nc4[nH]nnc34)cn2)cc1` [Example 58, 7-((1-(4-(Methylsulfonyl)benzyl)-1H-pyrazol-4-yl)methyl)-3H-[1,2,3]triazolo[4,5-b]pyridin-5-amine] yielded a half-maximal inhibitory concentration (IC50) of 101 to 999 nM.
As to `Cc1cc(Cc2cc(N)nc3[nH]nnc23)sc1C` [Example 50, 7-((4,5-Dimethylthiophen-2-yl)methyl)-3H-[1,2,3]triazolo[4,5-b]pyridin-5-amine], the IC50 was in the range of 101 to 999 nM.
The value for `Nc1cc(Cc2cnn(-c3cccc(Br)c3)c2)c2nn[nH]c2n1` [Example 29, 7-((1-(3-Bromophenyl)-1H-pyrazol-4-yl)methyl)-3H-[1,2,3]triazolo[4,5-b]pyridin-5-amine] was 1 to 100 nM; that for `Nc1cc(Cc2cnc(-c3ccc(F)cc3)s2)c2nn[nH]c2n1` [Example 47, 7-((2-(4-Fluorophenyl)thiazol-5-yl)methyl)-3H-[1,2,3]triazolo[4,5-b]pyridin-5-amine] was 101 to 999 nM.
The value for `Nc1cc(Cc2cnn(-c3ccc(Br)cc3)c2)c2nn[nH]c2n1` [Example 8, 7-((1-(4-Bromophenyl)-1H-pyrazol-4-yl)methyl)-3H-[1,2,3]triazolo[4,5-b]pyridin-5-amine] was 1 to 100 nM; that for `Nc1cc(Cc2ccc(-c3ccccc3)s2)c2nn[nH]c2n1` [Example 49, 7-((5-Phenylthiophen-2-yl)methyl)-3H-[1,2,3]triazolo[4,5-b]pyridin-5-amine] was 1 to 100 nM.
The value for `Nc1cc(Cc2cnn(-c3cccc(OCc4ccccc4)c3)c2)c2nn[nH]c2n1` [Example 37, 7-((1-(3-(Benzyloxy)phenyl)-1H-pyrazol-4-yl)methyl)-3H-[1,2,3]triazolo[4,5-b]pyridin-5-amine] was 1 to 100 nM.
Turning to `COc1ccc(-n2cc(Cc3cc(N)nc4[nH]nnc34)cn2)cc1` [Example 27, 7-((1-(4-Methoxyphenyl)-1H-pyrazol-4-yl)methyl)-3H-[1,2,3]triazolo[4,5-b]pyridin-5-amine], the 50% inhibitory concentration (IC50) lay within 101 to 999 nM.
The value for `Nc1cc(Cc2cnn(-c3cncc(F)c3)c2)c2nn[nH]c2n1` [Example 22, 7-((1-(5-Fluoropyridin-3-yl)-1H-pyrazol-4-yl)methyl)-3H-[1,2,3]triazolo[4,5-b]pyridin-5-amine] was 101 to 999 nM; that for `Cc1ccc(-n2cc(Cc3cc(N)nc4[nH]nnc34)cn2)cc1` [Example 26, 7-((1-(4-Methylphenyl)-1H-pyrazol-4-yl)methyl)-3H-[1,2,3]triazolo[4,5-b]pyridin-5-amine] was 101 to 999 nM; that for `NC(=O)c1ccc(Cn2cc(Cc3cc(N)nc4[nH]nnc34)cn2)cc1` [Example 73, 4-((4-((5-Amino-3H-[1,2,3]triazolo[4,5-b]pyridin-7-yl)methyl)-1H-pyrazol-1-yl)methyl)benzamide] was 1000 to 10000 nM.
For `Nc1cc(Cc2cnn(-c3cccc4cccnc34)c2)c2nn[nH]c2n1` [Example 16, 7-((1-(Quinolin-8-yl)-1H-pyrazol-4-yl)methyl)-3H-[1,2,3]triazolo[4,5-b]pyridin-5-amine], the half-inhibitory concentration (IC50) lay in the range of 101 to 999 nM.
Compound `Nc1cc(Cc2ccc(C(F)(F)F)o2)c2nn[nH]c2n1` [Example 70, 7-{[5-(Trifluoromethyl)furan-2-yl]methyl}-3H-[1,2,3]triazolo[4,5-b]pyridin-5-amine] displayed an IC50 of 1000 to 10000 nM.
The value for `Nc1cc(Cc2cnn(-c3ccc(=O)[nH]c3)c2)c2nn[nH]c2n1` [Example 38, 5-(4-((5-Amino-3H-[1,2,3]triazolo[4,5-b]pyridin-7-yl)methyl)-1H-pyrazol-1-yl)pyridin-2(1H)-one] was 101 to 999 nM.
The value for `COc1cc(-n2cc(Cc3cc(N)nc4[nH]nnc34)cn2)ccn1` [Example 32, 7-((1-(2-Methoxypyridin-4-yl)-1H-pyrazol-4-yl)methyl)-3H-[1,2,3]triazolo[4,5-b]pyridin-5-amine] was 101 to 999 nM; that for `Cc1ccc(-n2cc(Cc3cc(N)nc4[nH]nnc34)cn2)c2ccccc12` [Example 13, 7-((1-(4-Methylnaphthalen-1-yl)-1H-pyrazol-4-yl)methyl)-3H-[1,2,3]triazolo[4,5-b]pyridin-5-amine] was 1 to 100 nM; that for `Nc1cc(Cc2cnn(-c3cccnc3)c2)c2nn[nH]c2n1` [Example 30, 7-((1-(Pyridin-3-yl)-1H-pyrazol-4-yl)methyl)-3H-[1,2,3]triazolo[4,5-b]pyridin-5-amine] was 1 to 100 nM.
The value for `CC(c1ccccc1)n1cc(Cc2cc(N)nc3[nH]nnc23)cn1` (centres unmarked) [Example 63, 7-((1-(1-Phenylethyl)-1H-pyrazol-4-yl)methyl)-3H-[1,2,3]triazolo[4,5-b]pyridin-5-amine] was 1 to 100 nM; that for `Nc1cc(Cc2cnn(-c3cncc4ccccc34)c2)c2nn[nH]c2n1` [Example 18, 7-((1-(Isoquinolin-4-yl)-1H-pyrazol-4-yl)methyl)-3H-[1,2,3]triazolo[4,5-b]pyridin-5-amine] was 1 to 100 nM.

(Values after patent US10407422B2, “Triazolopyridine inhibitors of myeloperoxidase” (priority 2015, dated 2019).)
